Assay results published in patent US20260262643A1, “HERBICIDAL BENZOXAZINES” (FMC CORPORATION, priority 2022, published 2026).

What was measured:
green foxtail [1] = test: Test C preemergence; format: in vivo, Setaria viridis; details: 0 to 100 scale (0 no effect, 100 complete control); for Plant response rating, Foxtail, Green: Preemergence, 500 g ai/ha, visual rating after 10 days; for Foxtail, Green plant response rating: Test C, preemergence, 125 g ai/ha
In short: (§1)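 Seeds in loam–sand blend received preemergence directed soil spray of test chemicals in non-phytotoxic solvent with surfactant; postemergence treatment was applied at one- to two-leaf stage (2–10 cm). After 10 days in greenhouse, injury rated visually versus untreated controls, 0 (no effect) to 100 (complete control).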

oat, wild [2] = test: Test C postemergence; format: in vivo, Avena fatua; details: 10 days
In short: as §1

oat, wild [3] = test: Test C preemergence; format: in vivo, Avena fatua; details: 0 to 100 scale (0 no effect, 100 complete control); for Plant response rating, Oat, Wild: Preemergence, 500 g ai/ha, visual rating after 10 days; for Oat, Wild plant response rating: Test C, preemergence, 125 g ai/ha
In short: as §1

ducksalad = test: Test D flooded paddy test; format: in vivo, Heteranthera limosa; details: 250 g ai/ha, applied to paddy water, visual rating after 13 to 14 days, scale 0 to 100 (0 no effect, 100 complete control)
In short: (§2)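 Rating scale 0–100 (0 no effect, 100 complete control), visual, versus controls. Readout at 13–14 days after in-water application to 2-leaf plants in pots flooded 3 cm deep.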

barnyardgrass [4] = test: Test C preemergence; format: in vivo, Echinochloa crusgalli; details: 0 to 100 scale (0 no effect, 100 complete control); for Barnyardgrass plant response rating: 125 g ai/ha, preemergence; for Plant response rating, Barnyardgrass: Preemergence, 500 g ai/ha, visual rating after 10 days
In short: as §1

pigweed, palmer [5] = test: Test C postemergence; format: in vivo, Amaranthus palmeri; details: 10 days
In short: as §1

ryegrass, Italian [6] = test: Test C preemergence; format: in vivo, Lolium multiflorum; details: 0 to 100 scale (0 no effect, 100 complete control); for Plant response rating, Ryegrass, Italian: Preemergence, 500 g ai/ha, visual rating after 10 days; for Ryegrass, Italian plant response rating: Test C, preemergence, 125 g ai/ha
In short: as §1

kochia [7] = test: Test C preemergence; format: in vivo, Bassia scoparia; details: 0 to 100 scale (0 no effect, 100 complete control); for Plant response rating, Kochia: Preemergence, 500 g ai/ha, visual rating after 10 days; for Kochia plant response rating: Test C, preemergence, 125 g ai/ha
In short: as §1

blackgrass [8] = test: Test C preemergence; format: in vivo, Alopecurus myosuroides; details: 0 to 100 scale (0 no effect, 100 complete control); for Plant response rating, Blackgrass: Preemergence, 500 g ai/ha, visual rating after 10 days; for Blackgrass plant response rating: Test C, preemergence, 125 g ai/ha
In short: as §1

ryegrass, Italian [9] = test: Test C postemergence; format: in vivo, Lolium multiflorum; details: 10 days
In short: as §1

barnyardgrass [10] = test: Test C postemergence; format: in vivo, Echinochloa crusgalli; details: 10 days
In short: as §1

soybean [11] = test: Test C preemergence; format: in vivo, Glycine max; details: 0 to 100 scale (0 no effect, 100 complete control); for Plant response rating, Soybean: Preemergence, 500 g ai/ha, visual rating after 10 days; for Soybean plant response rating: Test C, preemergence, 125 g ai/ha
In short: as §1

corn [12] = test: Test C preemergence; format: in vivo, Zea mays; details: 0 to 100 scale (0 no effect, 100 complete control); for Plant response rating, Corn: Preemergence, 500 g ai/ha, visual rating after 10 days; for Corn plant response rating: Test C, preemergence, 125 g ai/ha
In short: as §1

ragweed [13] = test: Test C postemergence; format: in vivo, Ambrosia artemisiifolia; details: 10 days
In short: as §1

pigweed, palmer [14] = test: Test C preemergence; format: in vivo, Amaranthus palmeri; details: 0 to 100 scale (0 no effect, 100 complete control); for Plant response rating, Pigweed, Palmer: Preemergence, 500 g ai/ha, visual rating after 10 days; for Pigweed, Palmer plant response rating: Test C, preemergence, 125 g ai/ha
In short: as §1

galium = test: Test C postemergence; format: in vivo, Galium aparine; details: 10 days
In short: as §1

green foxtail [15] = test: Test C postemergence; format: in vivo, Setaria viridis; details: 10 days
In short: as §1

wheat [16] = test: Test C postemergence; format: in vivo, Triticum aestivum; details: 10 days
In short: as §1

ragweed [17] = test: Test C preemergence; format: in vivo, Ambrosia artemisiifolia; details: 0 to 100 scale (0 no effect, 100 complete control); for Plant response rating, Ragweed: Preemergence, 500 g ai/ha, visual rating after 10 days; for Ragweed plant response rating: Test C, preemergence, 125 g ai/ha
In short: as §1

soybean [18] = test: Test C postemergence; format: in vivo, Glycine max; details: 10 days
In short: as §1

kochia [19] = test: Test C postemergence; format: in vivo, Bassia scoparia; details: 10 days
In short: as §1

rice = test: Test D flooded paddy test; format: in vivo, Oryza sativa; details: 250 g ai/ha, applied to paddy water, visual rating after 13 to 14 days, scale 0 to 100 (0 no effect, 100 complete control)
In short: as §2

barnyardgrass [20] = test: Test D flooded paddy test; format: in vivo, Echinochloa crus-galli; details: 250 g ai/ha, applied to paddy water, visual rating after 13 to 14 days, scale 0 to 100 (0 no effect, 100 complete control)
In short: as §2

horseweed = test: Test C postemergence; format: in vivo, Erigeron canadensis; details: 10 days
In short: as §1

sedge, umbrella = test: Test D flooded paddy test; format: in vivo, Cyperus difformis; details: 250 g ai/ha, applied to paddy water, visual rating after 13 to 14 days, scale 0 to 100 (0 no effect, 100 complete control)
In short: as §2

blackgrass [21] = test: Test C postemergence; format: in vivo, Alopecurus myosuroides; details: 10 days
In short: as §1

wheat [22] = test: Test C preemergence; format: in vivo, Triticum aestivum; details: 0 to 100 scale (0 no effect, 100 complete control); for Plant response rating, Wheat: Preemergence, 500 g ai/ha, visual rating after 10 days; for Wheat plant response rating: Test C, preemergence, 125 g ai/ha
In short: as §1

corn [23] = test: Test C postemergence; format: in vivo, Zea mays; details: 10 days
In short: as §1

[24] = 125 g ai/ha, postemergence, 0 to 100 scale, 0 no effect, 100 complete control
[25] = Postemergence, 500 g ai/ha, visual 0 to 100 scale (0 no effect, 100 complete control)

CCn1cnc(-c2cccc(C(=O)N3C[C@H](C)Oc4c(C)cccc43)c2)n1 [Compound 165]
60: Plant response rating, Horseweed (horseweed; [25])
20: Plant response rating, Ragweed (ragweed [17])
0: Plant response rating, Foxtail, Green (green foxtail [1]) | Foxtail, Green plant response rating (green foxtail [1]) | Plant response rating, Oat, Wild (oat, wild [2]; [24]) | Plant response rating, Oat, Wild (oat, wild [2]; [25]) | Plant response rating, Oat, Wild (oat, wild [3]) | Oat, Wild plant response rating (oat, wild [3]) | Plant response rating, Ducksalad (Flood) (ducksalad) | Barnyardgrass plant response rating (barnyardgrass [4]) | Plant response rating, Barnyardgrass (barnyardgrass [4]) | Plant response rating, Pigweed, Palmer (pigweed, palmer [5]; [24]) | Plant response rating, Ryegrass, Italian (ryegrass, Italian [6]) | Ryegrass, Italian plant response rating (ryegrass, Italian [6]) | Plant response rating, Kochia (kochia [7]) | Kochia plant response rating (kochia [7]) | Plant response rating, Blackgrass (blackgrass [8]) | Blackgrass plant response rating (blackgrass [8]) | Plant response rating, Ryegrass, Italian (ryegrass, Italian [9]; [24]) | Plant response rating, Ryegrass, Italian (ryegrass, Italian [9]; [25]) | Plant response rating, Barnyardgrass (barnyardgrass [10]; [24]) | Plant response rating, Soybean (soybean [11]) | Soybean plant response rating (soybean [11]) | Plant response rating, Corn (corn [12]) | Corn plant response rating (corn [12]) | Plant response rating, Ragweed (ragweed [13]; [24]) | Plant response rating, Ragweed (ragweed [13]; [25]) | Plant response rating, Pigweed, Palmer (pigweed, palmer [14]) | Pigweed, Palmer plant response rating (pigweed, palmer [14]) | Plant response rating, Galium (galium; [24]) | Plant response rating, Galium (galium; [25]) | Plant response rating, Foxtail, Green (green foxtail [15]; [24]) | Plant response rating, Foxtail, Green (green foxtail [15]; [25]) | Plant response rating, Wheat (wheat [16]; [24]) | Plant response rating, Wheat (wheat [16]; [25]) | Ragweed plant response rating (ragweed [17]) | Plant response rating, Kochia (kochia [19]; [24]) | Plant response rating, Kochia (kochia [19]; [25]) | Plant response rating, Rice (Flood) (rice) | Plant response rating, Barnyardgrass (Flood) (barnyardgrass [20]) | Plant response rating, Horseweed (horseweed; [24]) | Plant response rating, Sedge, Umbrella (Flood) (sedge, umbrella) | Plant response rating, Blackgrass (blackgrass [21]; [24]) | Plant response rating, Wheat (wheat [22]) | Wheat plant response rating (wheat [22]) | Plant response rating, Corn (corn [23]; [24]) | Plant response rating, Corn (corn [23]; [25])
10: Plant response rating, Pigweed, Palmer (pigweed, palmer [5]; [25]) | Plant response rating, Barnyardgrass (barnyardgrass [10]; [25]) | Plant response rating, Blackgrass (blackgrass [21]; [25])
30: Plant response rating, Soybean (soybean [18]; [24]) | Plant response rating, Soybean (soybean [18]; [25])

Cc1ccc(-n2cnc(C3(C)CCC3)n2)cc1C(=O)N1C[C@H](C)Oc2c(Cl)cccc21 [Compound 167]
100: Plant response rating, Foxtail, Green (green foxtail [1]) | Foxtail, Green plant response rating (green foxtail [1]) | Plant response rating, Barnyardgrass (barnyardgrass [4]) | Plant response rating, Pigweed, Palmer (pigweed, palmer [5]; [25]) | Plant response rating, Kochia (kochia [7]) | Plant response rating, Pigweed, Palmer (pigweed, palmer [14]) | Pigweed, Palmer plant response rating (pigweed, palmer [14]) | Plant response rating, Galium (galium; [25]) | Plant response rating, Soybean (soybean [18]; [24]) | Plant response rating, Soybean (soybean [18]; [25]) | Plant response rating, Kochia (kochia [19]; [25])
40: Soybean plant response rating (soybean [11])
10: Plant response rating, Wheat (wheat [16]; [24]) | Ragweed plant response rating (ragweed [17]) | Plant response rating, Horseweed (horseweed; [24]) | Plant response rating, Corn (corn [23]; [24])
20: Plant response rating, Oat, Wild (oat, wild [2]; [25]) | Oat, Wild plant response rating (oat, wild [3]) | Plant response rating, Ryegrass, Italian (ryegrass, Italian [9]; [24]) | Plant response rating, Barnyardgrass (barnyardgrass [10]; [24]) | Plant response rating, Wheat (wheat [16]; [25]) | Plant response rating, Corn (corn [23]; [25])
80: Ryegrass, Italian plant response rating (ryegrass, Italian [6]) | Plant response rating, Ryegrass, Italian (ryegrass, Italian [9]; [25]) | Plant response rating, Soybean (soybean [11]) | Plant response rating, Ragweed (ragweed [17])
70: Plant response rating, Blackgrass (blackgrass [8]) | Plant response rating, Blackgrass (blackgrass [21]; [25])
60: Plant response rating, Barnyardgrass (barnyardgrass [10]; [25])
0: Plant response rating, Oat, Wild (oat, wild [2]; [24]) | Plant response rating, Ducksalad (Flood) (ducksalad) | Plant response rating, Corn (corn [12]) | Corn plant response rating (corn [12]) | Plant response rating, Rice (Flood) (rice) | Plant response rating, Barnyardgrass (Flood) (barnyardgrass [20]) | Plant response rating, Sedge, Umbrella (Flood) (sedge, umbrella) | Plant response rating, Blackgrass (blackgrass [21]; [24]) | Plant response rating, Wheat (wheat [22]) | Wheat plant response rating (wheat [22])
90: Barnyardgrass plant response rating (barnyardgrass [4]) | Plant response rating, Pigweed, Palmer (pigweed, palmer [5]; [24]) | Plant response rating, Ryegrass, Italian (ryegrass, Italian [6]) | Kochia plant response rating (kochia [7]) | Plant response rating, Ragweed (ragweed [13]; [24]) | Plant response rating, Ragweed (ragweed [13]; [25]) | Plant response rating, Galium (galium; [24]) | Plant response rating, Foxtail, Green (green foxtail [15]; [25]) | Plant response rating, Kochia (kochia [19]; [24])
30: Blackgrass plant response rating (blackgrass [8]) | Plant response rating, Horseweed (horseweed; [25])
50: Plant response rating, Oat, Wild (oat, wild [3]) | Plant response rating, Foxtail, Green (green foxtail [15]; [24])
